The Km is the concentration of substrate that gives half-maximal velocity.

Drawing on paper PMC10576086, “Characterization of the horse chestnut genome reveals the evolution of aescin and aesculin biosynthesis” (Nature Communications, 2023), this text covers Km for one compound.

Assay [1] concerns T1, AcUGT84A56.
T1 construct: gene UGT84A56; full-length, MBP or His fusion (pMAL-c2x or pET28a), E. coli, purified
Briefly: HPLC glucosyltransferase kinetics. Format: biochemical, Aesculus chinensis. The following applies: 1 mM UDP-glucose, Tris-HCl pH 7.0, 37 °C, 0-400 μM acceptor.

For assay [2], the system named is T2, AcUGT92G7.
T2 construct: gene UGT92G7; full-length, MBP or His fusion (pMAL-c2x or pET28a), E. coli, purified
Briefly: HPLC glucosyltransferase kinetics. Format: biochemical, Aesculus chinensis. The following applies: 1 mM UDP-glucose, Tris-HCl pH 7.0, 37 °C, 0-400 μM acceptor.

For the compound `O=c1ccc2cc(O)c(O)cc2o1` [compound 4, esculetin], the Michaelis constant (Km) is 177 µM in assay [1] and 49 µM in assay [2].
